Experimental data: PubChem BioAssay AID977612 (Broad Institute, 2014)
Active and inactive are the calls of the source.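 Rule for the calls: active = compounds lowering the signal whose fitted AC50 is at most twice their top tested dose; inconclusive = flat fit with 30 to 70% inhibition, or poor fit; inactive = the rest.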

Molecular target: Drosophila melanogaster bursicon receptor (rickets, LGR2)
Experiment: LGR2 bursicon receptor antagonists, dose response, cell-based, HEK293, CRE-luciferase, luminescence, dry powder (AID 977612)
Settings: bursicon-stimulated, antagonist luminescence; for activity change, negative = inhibition: at 35 µM (top of the series)

| SMILES | AC50 | activity change, negative = inhibition |
| --- | --- | --- |
| C[C@H](CO)N1C[C@H](C)[C@H](CN(C)C(=O)Nc2cccc3ccccc23)OCCCC[C@H](C)Oc2ccc(NC(=O)NC3CCCCC3)cc2C1=O | 23.2 µM | – |
| C[C@H](CO)N1C[C@H](C)[C@H](CN(C)C(=O)Nc2ccc(F)cc2)OCCCC[C@H](C)Oc2ccc(NC(=O)C3CCCCC3)cc2C1=O | 6.2 µM | – |
| C[C@H](CO)N1C[C@H](C)[C@H](CN(C)C(=O)Nc2ccc(F)cc2)OCCCC[C@H](C)Oc2ccc(NC(=O)NC3CCCCC3)cc2C1=O | 21.4 µM | – |
| C[C@@H]1CCCCO[C@H](CN(C)C(=O)Nc2cccc3ccccc23)[C@H](C)CN([C@H](C)CO)C(=O)c2cc(NC(=O)C3CCCCC3)ccc2O1 | – | inactive |
| C[C@@H]1CN([C@H](C)CO)C(=O)c2cc(NC(=O)C3CCCCC3)ccc2O[C@@H](C)CCCCO[C@@H]1CN(C)C(=O)Nc1cccc2ccccc12 | > 70 µM (inactive) | – |
| CC(=O)Nc1ccc2c(c1)C(=O)N([C@H](C)CO)C[C@H](C)[C@H](CN(C)C(=O)Nc1ccc(F)cc1)OCCCC[C@H](C)O2 | – | inactive |
| C[C@@H]1CCCCO[C@H](CN(C)C(=O)Nc2cccc3ccccc23)[C@@H](C)CN([C@H](C)CO)C(=O)c2cc(NC(=O)C3CCCCC3)ccc2O1 | – | inactive |
| C[C@H](CO)N1C[C@H](C)[C@@H](CN(C)C(=O)Nc2cccc3ccccc23)OCCCC[C@H](C)Oc2ccc(NC(=O)C3CCCCC3)cc2C1=O | – | inactive |
| C[C@H](CO)N1C[C@H](C)[C@H](CN(C)C(=O)Nc2ccc(C(F)(F)F)cc2)OCCCC[C@H](C)Oc2ccc(NC(=O)CCC(F)(F)F)cc2C1=O | 15 µM | – |
| C[C@H](CO)N1C[C@H](C)[C@H](CN(C)C(=O)Nc2cccc3ccccc23)OCCCC[C@H](C)Oc2ccc(NC(=O)CCC(F)(F)F)cc2C1=O | 13.1 µM | – |
| C[C@H](CO)N1C[C@H](C)[C@H](CN(C)C(=O)Nc2ccc(F)cc2)OCCCC[C@H](C)Oc2ccc(NC(=O)C3CC3)cc2C1=O | – | inactive |
| C[C@H](CO)N1C[C@H](C)[C@H](CN(C)C(=O)Nc2ccccc2)OCCCC[C@H](C)Oc2ccc(NC(=O)NC3CCCCC3)cc2C1=O | 20.9 µM | – |
| C[C@@H]1CN([C@H](C)CO)C(=O)c2cc(NC(=O)C3CCCCC3)ccc2O[C@@H](C)CCCCO[C@H]1CN(C)C(=O)Nc1cccc2ccccc12 | > 70 µM (inactive) | – |
| CC(C)(C)c1ccc(-c2nc(-c3ccncc3)no2)cc1 | – | inactive |
| C[C@H](CO)N1C[C@H](C)[C@H](CN(C)C(=O)Nc2cccc3ccccc23)OCCCC[C@H](C)Oc2ccc(NC(=O)c3ccccc3)cc2C1=O | 22.8 µM | – |

More lines, now with the values ahead:

| AC50 | activity change, negative = inhibition | SMILES |
| --- | --- | --- |
| 19.1 µM | – | COc1ccc(S(=O)(=O)N(C)C[C@@H]2OCCCC[C@H](C)Oc3ccc(NS(=O)(=O)c4ccc(Cl)cc4)cc3C(=O)N([C@@H](C)CO)C[C@@H]2C)cc1 |
| > 70 µM (inactive) | – | C[C@@H]1CCCCO[C@H](CN(C)C(=O)Nc2cccc3ccccc23)[C@@H](C)CN([C@@H](C)CO)C(=O)c2cc(NC(=O)C3CCCCC3)ccc2O1 |
| – | inactive | C[C@@H]1CCCCO[C@H](CN(C)C(=O)Nc2cccc3ccccc23)[C@H](C)CN([C@@H](C)CO)C(=O)c2cc(NC(=O)C3CCCCC3)ccc2O1 |
| 10.5 µM | – | C[C@H](CO)N1C[C@H](C)[C@H](CN(C)C(=O)Nc2ccc3c(c2)OCO3)OCCCC[C@H](C)Oc2ccc(NC(=O)C3CCCCC3)cc2C1=O |
| 36.3 µM | – | C[C@H](CO)N1C[C@H](C)[C@H](CN(C)C(=O)Nc2ccccc2)OCCCC[C@H](C)Oc2ccc(NC(=O)CCC(F)(F)F)cc2C1=O |
| – | inactive | C[C@@H]1CCCCO[C@@H](CN(C)C(=O)Nc2cccc3ccccc23)[C@H](C)CN([C@@H](C)CO)C(=O)c2cc(NC(=O)C3CCCCC3)ccc2O1 |
| 11.4 µM | – | C[C@H]1CCCCO[C@@H](CN(C)C(=O)Nc2ccc(F)cc2)[C@@H](C)CN([C@@H](C)CO)C(=O)c2cc(NC(=O)C3CCCCC3)ccc2O1 |
| > 70 µM (inactive) | – | C[C@@H]1CCCCO[C@@H](CN(C)C(=O)Nc2cccc3ccccc23)[C@@H](C)CN([C@@H](C)CO)C(=O)c2cc(NC(=O)C3CCCCC3)ccc2O1 |
| > 70 µM (inactive) | – | C[C@@H]1CN([C@@H](C)CO)C(=O)c2cc(NC(=O)C3CCCCC3)ccc2O[C@@H](C)CCCCO[C@H]1CN(C)C(=O)Nc1cccc2ccccc12 |
| 10.1 µM | – | COc1ccc(NC(=O)N(C)C[C@@H]2OCCCC[C@H](C)Oc3ccc(NC(=O)C4CCCCC4)cc3C(=O)N([C@H](C)CO)C[C@@H]2C)cc1 |
| – | inactive | C[C@H](CO)N1C[C@H](C)[C@H](CN(C)C(=O)Nc2ccc(F)cc2)OCCCC[C@H](C)Oc2ccc(NC(=O)C3CCOCC3)cc2C1=O |
| – | inactive | C[C@H]1CCCCO[C@@H](CN(C)S(=O)(=O)c2ccc(Cl)cc2)[C@@H](C)CN([C@@H](C)CO)C(=O)c2cc(NC(=O)NC3CCCCC3)ccc2O1 |
| 12.6 µM | – | C[C@H](CO)N1C[C@H](C)[C@H](CN(C)C(=O)Nc2ccccc2)OCCCC[C@H](C)Oc2ccc(NC(=O)C3CCCCC3)cc2C1=O |
| 30.8 µM | – | COc1ccc(NC(=O)N(C)C[C@@H]2OCCCC[C@H](C)Oc3ccc(NC(=O)NC4CCCCC4)cc3C(=O)N([C@H](C)CO)C[C@@H]2C)cc1 |
| 31 µM | – | C[C@H](CO)N1C[C@H](C)[C@H](CN(C)C(=O)Nc2ccc3c(c2)OCO3)OCCCC[C@H](C)Oc2ccc(NC(=O)NC3CCCCC3)cc2C1=O |
| – | inactive | C[C@@H]1CN([C@@H](C)CO)C(=O)c2cc(NC(=O)C3CCCCC3)ccc2O[C@@H](C)CCCCO[C@@H]1CN(C)C(=O)Nc1cccc2ccccc12 |
| – | inactive | C[C@@H]1CCCCO[C@@H](CN(C)C(=O)Nc2cccc3ccccc23)[C@H](C)CN([C@H](C)CO)C(=O)c2cc(NC(=O)C3CCCCC3)ccc2O1 |
| 31.7 µM | – | C[C@H]1CCCCO[C@@H](CN(C)C(=O)Nc2ccc(C(F)(F)F)cc2)[C@@H](C)CN([C@@H](C)CO)C(=O)c2cc(NC(=O)CCC(F)(F)F)ccc2O1 |
| – | inactive | C[C@@H]1CCCCO[C@@H](CN(C)C(=O)Nc2cccc3ccccc23)[C@@H](C)CN([C@H](C)CO)C(=O)c2cc(NC(=O)C3CCCCC3)ccc2O1 |
| – | inactive | C[C@H]1CCCCO[C@H](CN(C)C(=O)Nc2cccc3ccccc23)[C@@H](C)CN([C@@H](C)CO)C(=O)c2cc(NC(=O)C3CCCCC3)ccc2O1 |
